Laboratory results: patent US11413278B2, “Compounds and methods for promoting stress resistance” (priority 2015, dated 2022)
Like-named read-outs stand apart in the source and are kept apart here.

Columns and labels:
C. elegans = C. elegans lifespan assays (liquid and plate); assay type: in vivo, Caenorhabditis elegans; conditions: for ILS at 60 µM / ILS at 66 µM: Caenorhabditis elegans; for Extension of C. elegans' lifespan (qualitative): in at least 3 to 4 trials, group range ~10% to ~50%; for Trials with lifespan extension: positive of total trials
WI-38 cells [1] = experiment: CdCl2 (cadmium) resistance assay; assay type: cell-based, human; conditions: for fold induction at 10 µM: Homo sapiens, 12 h, normalized ATP measurement; for Assay 4: H2O2- & Cd-resistant / Assay 2: Cadmium-resistant: YES/NO; for Assay 2: Cadmium-resistant: * indicates partial
Summary of the method: (§1)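 Resistance to CdCl2 or MMS stress (12 h exposure) was scored in WI-38 fibroblasts pretreated with compound at 0.25–20 μM final, five doses, technical triplicates. MMS plates had compound added 24 h before MMS, after a shift to serum-free DMEM+2% BSA. Significance came from a global variance t-test over two independent runs.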

[2] = system: phosphorylated γH2A.X and TP53BP1; experiment: DNA damage marker analysis (immuno-staining); conditions: for activity at 10 µM: Homo sapiens, WI-38, 24 h
Summary of the method: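 Immunofluorescence read-out for phospho-γH2A.X (Ser-139) and phospho-TP53BP1 (Ser-1778), with DAPI nuclear stain and automated imaging at 10×. WI-38 cells (~8,000 per well) were exposed to small molecules for 24 h after 24 h of culture, with doxorubicin (300 nM, 24 h) or H2O2 (700 μM, 3 h) as positive damage controls.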

WI-38 cells [3] = experiment: MMS resistance assay; assay type: cell-based, human; conditions: for fold induction at 10 µM: Homo sapiens, 12 h, normalized ATP measurement; for Assay 3: MMS-resistant / Assay 5: Triple resistant: YES/NO; for Assay 3: MMS-resistant: * indicates partial; for Assay 5: Triple resistant: H2O2, cadmium and MMS
Summary of the method: as §1

human PARP1 = target: T1, human PARP1 (Homo sapiens, UniProt P09874); experiment: PARP inhibitor assay (HT Fluorescent Homogeneous PARP Inhibition Assay Kit); assay type: biochemical; conditions: score
T1 construct: purchased Trevigen
Summary of the method: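 Compounds (10 μM final) incubated 30 min, room temperature, dark, with human PARP1, nicotinamide adenine dinucleotide and activated DNA. Fluorescent signal generated by 1 hr cycling with diaphorase and resazurin, then reaction stopped.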

[4] = 60 μM, in liquid, wild type, with FuDR, 1.0 × 10^9 bacteria/ml, read-out: relative change of mean lifespan vs control, Trial 1
[5] = 60 μM, in liquid, wild type, with FuDR, 2.5 × 10^9 bacteria/ml, read-out: relative change of mean lifespan vs control, Trial 2
[6] = 60 μM, on plate, CF512 temperature-sensitive sterile animals, without FuDR, 2.0 × 10^10 bacteria/ml, read-out: relative change of mean lifespan vs control, Trial 3
[7] = Assay 2(z), at 66 uM, 1.0 × 10^9 bacteria/ml, wild type + FuDR (2012 July), read-out: Lifespan assay in liquid
[8] = Assay 3(aa), at 66 uM, 2.5 × 10^9 bacteria/ml, wild type + FuDR, read-out: Lifespan assay in liquid
[9] = Assay 4(ab), at 66 uM, 2.0 × 10^10 bacteria/ml, CF512 worms, no FuDR, read-out: Lifespan assay on plates
[10] = score scale 0 to 2, 4 to 6 independent trials
[11] = Exp. 1, WI-38 cells, read-out: Exp. 1, under Cd2Cl2 stress treatment, at 10 uM (fold change)
[12] = Exp. 2, WI-38 cells, read-out: Exp. 2, under Cd2Cl2 stress treatment, at 10 uM (fold change)
[13] = score in summary of 38 core set hits
[14] = read-out: Experiment 1, H2A.X-P DNA damage foci staining (no H2O2 stress treatment), at 10 uM
[15] = read-out: Experiment 2, H2A.X-P DNA damage foci staining (no H2O2 stress treatment), at 10 uM
[16] = read-out: Experiment 2, H2A.X-P DNA damage foci staining (under H2O2 stress treatment), at 10 uM
[17] = read-out: Experiment 2, TP53BP1-P DNA damage foci staining (no H2O2 stress treatment), at 10 uM
[18] = read-out: Experiment 2, TP53BP1-P DNA damage foci staining (under H2O2 stress treatment), at 10 uM
[19] = Exp. 1, WI-38 cells, read-out: Exp. 1, under MMS stress treatment, at 10 uM (fold change)
[20] = Exp. 2, WI-38 cells, read-out: Exp. 2, under MMS stress treatment, at 10 uM (fold change)
[21] = WI-38 cells, 10 μM, both stressors

T1 sequence (P09874 whole entry): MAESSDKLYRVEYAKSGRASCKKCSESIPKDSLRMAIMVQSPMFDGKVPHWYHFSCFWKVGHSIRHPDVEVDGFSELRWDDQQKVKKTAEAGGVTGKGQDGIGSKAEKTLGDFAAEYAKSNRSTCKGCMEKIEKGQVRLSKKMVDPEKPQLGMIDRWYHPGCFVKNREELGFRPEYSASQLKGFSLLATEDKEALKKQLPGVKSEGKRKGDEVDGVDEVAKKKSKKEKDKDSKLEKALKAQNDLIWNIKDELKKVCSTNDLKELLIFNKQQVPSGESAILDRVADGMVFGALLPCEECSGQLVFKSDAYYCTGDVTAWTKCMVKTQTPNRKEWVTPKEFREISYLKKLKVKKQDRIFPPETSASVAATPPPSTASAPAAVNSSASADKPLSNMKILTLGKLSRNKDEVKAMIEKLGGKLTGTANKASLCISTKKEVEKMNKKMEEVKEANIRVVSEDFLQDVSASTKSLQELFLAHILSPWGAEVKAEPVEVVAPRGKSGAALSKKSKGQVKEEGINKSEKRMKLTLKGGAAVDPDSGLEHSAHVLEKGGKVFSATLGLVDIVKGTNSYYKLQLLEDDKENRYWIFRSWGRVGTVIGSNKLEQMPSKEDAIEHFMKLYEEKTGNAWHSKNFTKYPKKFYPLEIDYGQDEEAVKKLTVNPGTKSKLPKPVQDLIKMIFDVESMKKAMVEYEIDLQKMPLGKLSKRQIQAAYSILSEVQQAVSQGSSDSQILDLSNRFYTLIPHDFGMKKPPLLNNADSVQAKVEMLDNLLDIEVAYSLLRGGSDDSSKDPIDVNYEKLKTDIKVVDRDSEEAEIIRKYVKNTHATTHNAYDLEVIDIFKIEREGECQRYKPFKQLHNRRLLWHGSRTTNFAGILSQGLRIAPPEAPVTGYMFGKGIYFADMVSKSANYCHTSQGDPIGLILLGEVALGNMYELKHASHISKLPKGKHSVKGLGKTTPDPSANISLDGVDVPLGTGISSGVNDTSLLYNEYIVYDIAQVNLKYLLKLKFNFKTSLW

| SMILES | ILS at 60 µM (C. elegans; [4]) [%] | ILS at 60 µM (C. elegans; [5]) [%] | ILS at 60 µM (C. elegans; [6]) [%] | ILS at 66 µM (C. elegans; [7]) [%] | ILS at 66 µM (C. elegans; [8]) [%] | ILS at 66 µM (C. elegans; [9]) [%] | O = Life span- extending scores in worms (C. elegans; [10]) | M = Lifespan-extending scores in worms (C. elegans; summary score) | A = Cadmium resistant (WI-38 cells [1]; [13]) | A = Cadmium resistant (WI-38 cells [1]; summary score) | C = H2O2- & Cd-resistant (WI-38 cells [1]; summary score) | activity at 10 µM [2, 14] [%] | activity at 10 µM [2, 15] [%] | activity at 10 µM [2, 16] [%] | activity at 10 µM [2, 17] [%] | activity at 10 µM [2, 18] [%] | B = MMS resistant (WI-38 cells [3]; [13]) | B = MMS resistant (WI-38 cells [3]; summary score) | D = Triple resistant (WI-38 cells [3]; summary score) | L = PARP inhibition (human PARP1) | other results |
| --- | --- | --- | --- | --- | --- | --- | --- | --- | --- | --- | --- | --- | --- | --- | --- | --- | --- | --- | --- | --- | --- |
| COc1cccc(/C=C2\CN(C)C/C(=C\c3cccc(OC)c3OC)C2=O)c1OC [O23] | 36.2 | 17.4 | 21.6 | 36.2 | 17.4 | 21.6 | 2 (2 for observed in more than 2 trials) | 2 (2 for observed in more than 2 trials) | 0 | 1 | 1 | 79.9 | 326 | 33.4 | 42.4 | 13.2 | 0 | 0 | 0 | 0 | ILS at 60 µM (C. elegans; 60 μM, on plate, CF512 temperature-sensitive sterile animals, without FuDR, 1.0 × 10^11 bacteria/ml, read-out: relative change of mean lifespan vs control, Trial 4): -0.3%; ILS at 66 µM (C. elegans; Assay 5(ac), at 66 uM, 1.0 × 10^11 bacteria/ml, CF512 worms, no FuDR, read-out: Lifespan assay on plates): -0.3%; Extension of C. elegans' lifespan (qualitative) (C. elegans): could extend animal's lifespan; Trials with lifespan extension (C. elegans): 3 of 4; fold induction at 10 µM (WI-38 cells [1]; [11]): 0.69; fold induction at 10 µM (WI-38 cells [1]; [12]): 0.64; Assay 4: H2O2- & Cd-resistant (WI-38 cells [1]): YES; Assay 2: Cadmium-resistant (WI-38 cells [1]): YES; P = Potential DNA-damaging ([2]; human, 24 h): 0; R = Potential DNA damaging ([2]; human, 24 h): 0; fold induction at 10 µM (WI-38 cells [3]; [19]): 1.04; fold induction at 10 µM (WI-38 cells [3]; [20]): 1.28 |
| NS(=O)(=O)c1ccc(NC(=O)c2ccc([N+](=O)[O-])o2)cc1 [Gr-1A] | -1.3 | 0.2 | 14.2 | -1.3 | 0.2 | 14.2 | 0 | 0 | 1 | 1 | 1 | 196 | 223 | 179 | 411 | 653 | 0 | 1 | 2 | 0 | CdCl2-resistant (WI-38 cells [1]): YES; H2O2- & CdCl2-resistant (WI-38 cells [1]): YES; fold induction at 10 µM (WI-38 cells [1]; [11]): 1.46; fold induction at 10 µM (WI-38 cells [1]; [12]): 1.45; CdCl2-resistant (WI-38 cells [1]; WI-38 cells, 10 μM): YES; H2O2- & CdCl2-resistant (WI-38 cells [1]; [21]): YES; Assay 4: H2O2- & Cd-resistant (WI-38 cells [1]): YES; Assay 2: Cadmium-resistant (WI-38 cells [1]): YES; P = Potential DNA-damaging ([2]; human, 24 h): 1; R = Potential DNA damaging ([2]; human, 24 h): 1; fold induction at 10 µM (WI-38 cells [3]; [19]): 0.72; fold induction at 10 µM (WI-38 cells [3]; [20]): 2.42; Assay 3: MMS-resistant (WI-38 cells [3]): YES; Assay 5: Triple resistant (WI-38 cells [3]): YES |
| N=C1S/C(=C\c2cn(-c3ccccc3)nc2-c2cccs2)C(=O)N1c1nccs1 [Gr-6C] | 20.5 | 12.4 | 9.4 | 20.5 | 12.4 | 9.4 | 2 (2 for observed in more than 2 trials) | 2 (2 for observed in more than 2 trials) | 0 | 0 | 0 | 181 | 300 | 43 | 290 | 440 | 0 | 0 | 0 | 0 | Extension of C. elegans' lifespan (qualitative) (C. elegans): could extend animal's lifespan; Trials with lifespan extension (C. elegans): 3 of 3; P = Potential DNA-damaging ([2]; human, 24 h): 1; R = Potential DNA damaging ([2]; human, 24 h): 1 |
| CNC(=O)/C(C#N)=C/c1c(Oc2ccc(C(C)(C)C)cc2)nc2ccccn2c1=O [Gr-5D] | 29.5 | 5.8 | -5.3 | 29.5 | 5.8 | -5.3 | 0 | 0 | 0 | 1 | 1 | 94.1 | 75 | 112 | 145 | 480 | 0 | 1 | 2 | 0 | Assay 4: H2O2- & Cd-resistant (WI-38 cells [1]): YES; Assay 2: Cadmium-resistant (WI-38 cells [1]): YES; P = Potential DNA-damaging ([2]; human, 24 h): 0; R = Potential DNA damaging ([2]; human, 24 h): 0; Assay 3: MMS-resistant (WI-38 cells [3]): YES; Assay 5: Triple resistant (WI-38 cells [3]): YES |
| Oc1ccccc1-c1noc(-c2ccccc2O)n1 [O27] | – | – | – | – | – | – | – | – | 1 | 1 | 1 | 122 | 338 | 26.1 | 241 | 379 | 0 | 0 | 0 | 0 | ILS at 66 µM (C. elegans; read-out: Lifespan assay on plates): -69.3%; ILS at 60 µM (C. elegans; read-out: relative change of mean lifespan vs control, Trial 1): -35.1%; ILS at 60 µM (C. elegans; read-out: relative change of mean lifespan vs control, Trial 2): -17.8%; ILS at 60 µM (C. elegans; read-out: relative change of mean lifespan vs control, Trial 3): -69.3%; M = Lifespan-extending scores in worms (C. elegans; in vivo): 0; O = Life span- extending scores in worms (C. elegans; in vivo): 0; CdCl2-resistant (WI-38 cells [1]): YES; H2O2- & CdCl2-resistant (WI-38 cells [1]): YES; CdCl2-resistant (WI-38 cells [1]; WI-38 cells, 10 μM): YES; H2O2- & CdCl2-resistant (WI-38 cells [1]; [21]): YES; Assay 4: H2O2- & Cd-resistant (WI-38 cells [1]): YES; Assay 2: Cadmium-resistant (WI-38 cells [1]): YES; R = Potential DNA damaging ([2]; negative point, cultured human cells): 1; P = Potential DNA-damaging ([2]; summary score): 1; Assay 5: Triple resistant (WI-38 cells [3]): YES |
| O=C(Nc1cccc(Cl)c1)c1ccc([N+](=O)[O-])o1 [Gr-1D] | 18.2 | -0.5 | 10.5 | 18.2 | -0.5 | 10.5 | 1 (1 for lifespan extension observed in 2 trials) | 1 (1 for lifespan extension observed in 2 trials) | 1 | 1 | 1 | 232 | 353 | 164 | 353 | 554 | 0 | 1 | 2 | 0 | CdCl2-resistant (WI-38 cells [1]): YES; H2O2- & CdCl2-resistant (WI-38 cells [1]): YES; fold induction at 10 µM (WI-38 cells [1]; [11]): 3.14; fold induction at 10 µM (WI-38 cells [1]; [12]): 3.84; CdCl2-resistant (WI-38 cells [1]; WI-38 cells, 10 μM): YES; H2O2- & CdCl2-resistant (WI-38 cells [1]; [21]): YES; Assay 4: H2O2- & Cd-resistant (WI-38 cells [1]): YES; Assay 2: Cadmium-resistant (WI-38 cells [1]): YES; P = Potential DNA-damaging ([2]; human, 24 h): 1; R = Potential DNA damaging ([2]; human, 24 h): 1; fold induction at 10 µM (WI-38 cells [3]; [19]): 1.16; fold induction at 10 µM (WI-38 cells [3]; [20]): 2.31; Assay 3: MMS-resistant (WI-38 cells [3]): YES; Assay 5: Triple resistant (WI-38 cells [3]): YES |
